The test system of experiment [1] is Balb/c mice sensitized to ovalbumin. Conditions: mouse model of airway allergic eosinophilic inflammation; cited from earlier work.
In the next experiment the target is CXCL12 to CXCR4 (Homo sapiens, UniProt P48061). Particulars: cited from earlier work.
The target in the next experiment is CXCL12 to CXCR7 (Homo sapiens, UniProt P48061). Particulars: cited from earlier work.
Another experiment deals with CXCR4. Conditions: cited from earlier work.
For the next experiment, the target named is T1, CCL17 (Homo sapiens, UniProt Q92583).
T1 sequence (Q92583 24-94): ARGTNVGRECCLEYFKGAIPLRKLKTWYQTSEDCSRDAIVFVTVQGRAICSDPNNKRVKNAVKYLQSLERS
Description: Selectivity towards chemokine CCL17. Particulars: 5 μM. As to the method: Furthermore, the selectivity of (1) was also evaluated towards two other chemokines, namely CCL17 and CCL22, with no activity at 5 μM (data not shown).

A further experiment concerns MRL/lpr mice. In words: Peripheral hypercellularity in MRL/lpr lupus prone mice. It counts as in vivo. Particulars: single i.v. administration, 100 μg/mouse, counted five days later; p <0.05. As to the method:
Effect of compound (1) and classical anti-inflammatory drugs on peripheral hypercellularity in MRL/lpr mice. MRL/lpr mice (11-13 week-old) received intravenously a single administration of either compound (1) or chalcone 4-Phosphate or indicated molecules in saline (100 μg/mouse of each). The control group received saline only. The number of white blood cells (WBCs)/mL was evaluated by counting cells five days later. The results are expressed as the mean reduction of peripheral WBCs percentage+/−SEM. Statistical significance was assessed using the unpaired t-test. n=number of mice/group; ns=non-significant. […]
The test was as described previously (Schall et al., 2012; Briand et al., 2014). […] After centrifugation, white blood cells (WBCs) resuspended in phosphate buffer saline containing fetal calf serum were stained with acridine orange/propidium iodide and counted using a LUNA FL apparatus (logos Biosystems, Annandale, USA). The number of living WBCs in each group was compared to the one counted in the control group and the decrease of peripheral cell number was calculated. […] The results are expressed as the mean decreased of peripheral WBCs percentage SEM. Statistical differences were determined using the unpaired t test. Statistical results were calculated using the graphPad Prism software.

The test system of another experiment is C57BL/6J mice. In words: Fentanyl-induced hyperalgesia, tail immersion test.

The structures appear in SMILES notation.

CXCL12 to CXCR4, sequence (P48061 22-89 limits assumed): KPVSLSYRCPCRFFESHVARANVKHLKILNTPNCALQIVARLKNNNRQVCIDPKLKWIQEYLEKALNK
CXCL12 to CXCR7, sequence (P48061 22-89 limits assumed): as above

As to `COc1cc(/C=C/C(=O)c2ccc(Cl)cc2)ccc1O` [Chalcone-4, (E)-1-(4-Chlorophenyl)-3-(4-hydroxy-3-methoxyphenyl)prop-2-en-1-one, reference compound], the “Inflammatory infiltration, in particular of eosinophils” value in experiment [1] is “inhibits inflammatory infiltration”. Also, the “Binding of CXCL12 to CXCR4” value at CXCL12 to CXCR4 was “inhibits”. Also, the “Binding of CXCL12 to CXCR7” value at CXCL12 to CXCR7 was “inhibits”. Also, in the experiment on CXCR4, the “CXCR4 internalization in response to CXCL12” value is recorded as “prevents CXCR4 internalization”.
For the compound `COc1cc(-c2cc(-c3ccc(Cl)cc3)nc(=O)[nH]2)ccc1O` [compound (1), 4-(4-Chlorophenyl)-6-(4-hydroxy-3-methoxyphenyl)pyrimidin-2(1H)-one], the “Activity towards CCL17” value on CCL17 is on record as “no activity”. Further, the “Peripheral blood hypercellularity (WBCs)” value in the experiment with MRL/lpr mice is “significantly reduce peripheral blood hypercellularity”. Further, in the experiment on C57BL/6J mice (10 mg/kg i.p., co-administered with fentanyl), the “Secondary hyperalgesia induced by fentanyl” value is given as “completely prevented the development of secondary hyperalgesia”. Moreover, the “Nociceptive threshold, compound alone” value in the experiment with C57BL/6J mice (50 mg/kg, i.p., without fentanyl) is listed as “no effect on the nociceptive threshold”.
